pKi: −log10 of the molar value.
How the values were obtained:
[1] = biological target: T1, h-GABA-A α5β3γ2 (Homo sapiens (Human), UniProt P18507+P31644); assay: [3H]flumazenil competition binding assay, membranes of HEK293 cells expressing human GABAA receptors; conditions: displacement of [3H]flumazenil 0.5 nM, HEK293 cells expressing human receptors, mean of two determinations; read-out: Ki h-GABA-A α5β3γ2
How it was run: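 Displacement of [3H]flumazenil from membranes of HEK293 cells transiently expressing human α5β3γ2 receptors, in Krebs-tris buffer pH 7.5. Incubation to equilibrium, 1 h at 4° C., then filtration and scintillation counting. Ki is the mean of two determinations.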

[2] = biological target: T1, h-GABA-A α5β3γ2; assay: Two-electrode voltage clamp electrophysiology in Xenopus oocytes expressing GABAA receptors, modulation of GABA EC20 current; type: cell-based; conditions: Xenopus oocytes; for Efficacy (GABA) %: % modulation of GABA EC20 = 100*(Fold increase−1); for Fold increase h-GABA-A α5β3γ2 oocyte: GABA EC20, test compound at approx. 30 fold its Ki
How it was run: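 Values are % modulation of an EC20 GABA response, derived point by point from the ratio of compound-exposed versus control current traces (extremum taken, 100×(fold−1)). Recordings used oocytes injected with human α5, β3, γ2 mRNA, clamped at −80 mV at room temperature, at least 3 oocytes each.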

What does the source list for Cc1ccc(-c2noc(C)c2COc2ccc(C(=O)NCCO)nn2)cn1 [Example 29, N-(2-hydroxyethyl)-6-((5-methyl-3-(6-methylpyridin-3-yl)isoxazol-4-yl)methoxy)pyridazine-3-carboxamide]?
pKi [1]: 8.10; Efficacy (GABA) % [2]: 81%; Fold increase h-GABA-A α5β3γ2 oocyte [2]: 1.81

How did the pKi [1] turn out when Cc1ccc(-c2noc(C)c2COc2ccc(C(=O)NC3CCS(=O)(=O)CC3)nn2)cn1 [Example 30, N-(1,1-dioxothian-4-yl)-6-((5-methyl-3-(6-methylpyridin-3-yl)-1,2-oxazol-4-yl)methoxy)pyridazine-3-carboxamide] was run?
Its pKi is 7.91.

What about the “Efficacy (GABA) %” value [2] of the same compound?
Its value is 94%.

What about the “Fold increase h-GABA-A α5β3γ2 oocyte” value [2] of the same compound?
Its value is 1.94.

Cc1ccc(-c2noc(C)c2COc2ccc(C(=O)NCC3CC3)nn2)cn1 [Example 31, N-(cyclopropylmethyl)-6-((5-methyl-3-(6-methylpyridin-3-yl)isoxazol-4-yl)methoxy)pyridazine-3-carboxamide] was tested. Which pKi [1] did it give?
The pKi was 7.85.

And the “Efficacy (GABA) %” value [2]?
The value was 102%.

And the “Fold increase h-GABA-A α5β3γ2 oocyte” value [2]?
The value was 2.02.

Which results are given for Cc1ccc(-c2noc(C)c2COc2ccc(C(=O)NC(C)(C)CO)nn2)cn1 [Example 32]?
pKi [1]: 8.07; Efficacy (GABA) % [2]: 79%; Fold increase h-GABA-A α5β3γ2 oocyte [2]: 1.79

Cc1ccc(-c2noc(C)c2COc2ccc(C(=O)NCCC#N)nn2)cn1 [Example 33, N-(2-cyanoethyl)-6-((5-methyl-3-(6-methylpyridin-3-yl)isoxazol-4-yl)methoxy)pyridazine-3-carboxamide] was tested. Which pKi [1] did it give?
Its pKi is 7.94.

And the “Efficacy (GABA) %” value [2]?
Its value is 76%.

What about the “Fold increase h-GABA-A α5β3γ2 oocyte” value [2] of the same compound?
The value was 1.76.

With Cc1ccc(-c2noc(C)c2COc2ccc(C(=O)NC3COC3)nn2)cn1 [Example 35, 6-((5-methyl-3-(6-methylpyridin-3-yl)isoxazol-4-yl)methoxy)-N-(oxetan-3-yl)pyridazine-3-carboxamide] as the compound, how does the pKi [1] read?
The pKi was 8.36.

What about the “Efficacy (GABA) %” value [2] of the same compound?
The value was 82%.

What about the “Fold increase h-GABA-A α5β3γ2 oocyte” value [2] of the same compound?
The value was 1.82.

Which results are given for CCNC(=O)c1ccc(OCc2c(-c3ccc(C)nc3)noc2C)nn1 [Example 37, N-ethyl-6-((5-methyl-3-(6-methylpyridin-3-yl)isoxazol-4-yl)methoxy)pyridazine-3-carboxamide]?
pKi [1]: 8.12; Efficacy (GABA) % [2]: 73%; Fold increase h-GABA-A α5β3γ2 oocyte [2]: 1.73

How did the pKi [1] turn out when Cc1ccc(-c2noc(C)c2COc2ccc(C(=O)NC(C)C)nn2)cn1 [Example 38, N-isopropyl-6-((5-methyl-3-(6-methylpyridin-3-yl)isoxazol-4-yl)methoxy)pyridazine-3-carboxamide] was run?
Its pKi is 8.12.

And the “Efficacy (GABA) %” value [2]?
Its value is 84%.

And the “Fold increase h-GABA-A α5β3γ2 oocyte” value [2]?
The value was 1.84.

How did the pKi [1] turn out when Cc1ccc(-c2noc(C)c2COc2ccc(C(=O)NCC(C)C)nn2)cn1 [Example 39, N-isobutyl-6-((5-methyl-3-(6-methylpyridin-3-yl)isoxazol-4-yl)methoxy)pyridazine-3-carboxamide] was run?
Its pKi is 7.84.

And the “Efficacy (GABA) %” value [2]?
Its value is 89%.

And the “Fold increase h-GABA-A α5β3γ2 oocyte” value [2]?
The value was 1.89.

Cc1ccc(-c2noc(C)c2COc2ccc(C(=O)NCC(F)(F)F)nn2)cn1 [Example 40, 6-((5-methyl-3-(6-methylpyridin-3-yl)isoxazol-4-yl)methoxy)-N-(2,2,2-trifluoroethyl)pyridazine-3-carboxamide] was tested. Which pKi [1] did it give?
The pKi was 7.97.

And the “Efficacy (GABA) %” value [2]?
The value was 91%.

What about the “Fold increase h-GABA-A α5β3γ2 oocyte” value [2] of the same compound?
The value was 1.91.

How did the pKi [1] turn out when Cc1ccc(-c2noc(C)c2COc2ccc(C(=O)NC(C)(C)C)nn2)cn1 [Example 41, N-tert-butyl-6-((5-methyl-3-(6-methylpyridin-3-yl)isoxazol-4-yl)methoxy)pyridazine-3-carboxamide] was run?
Its pKi is 7.71.

And the “Efficacy (GABA) %” value [2]?
The value was 104%.

And the “Fold increase h-GABA-A α5β3γ2 oocyte” value [2]?
Its value is 2.04.

What does the source list for Cc1ccc(-c2noc(C)c2COc2ccc(C(=O)NC3CC(F)(F)C3)nn2)cn1 [Example 42, N-(3,3-difluorocyclobutyl)-6-((5-methyl-3-(6-methylpyridin-3-yl)isoxazol-4-yl)methoxy)pyridazine-3-carboxamide]?
pKi [1]: 8.05; Efficacy (GABA) % [2]: 81%; Fold increase h-GABA-A α5β3γ2 oocyte [2]: 1.81

Which results are given for Cc1ccc(-c2noc(C)c2COc2ccc(C(=O)NC3CCC(F)(F)CC3)nn2)cn1 [Example 43, N-(4,4-difluorocyclohexyl)-6-((5-methyl-3-(6-methylpyridin-3-yl)isoxazol-4-yl)methoxy)pyridazine-3-carboxamide]?
pKi [1]: 7.79; Efficacy (GABA) % [2]: 82%; Fold increase h-GABA-A α5β3γ2 oocyte [2]: 1.82

With CNC(=O)c1ccc(OCc2c(-c3ccc(C)nc3)noc2C)nn1 [Example 46, N-methyl-6-((5-methyl-3-(6-methylpyridin-3-yl)isoxazol-4-yl)methoxy)pyridazine-3-carboxamide] as the compound, how does the pKi [1] read?
The pKi was 8.46.

What about the “Efficacy (GABA) %” value [2] of the same compound?
Its value is 63%.

What about the “Fold increase h-GABA-A α5β3γ2 oocyte” value [2] of the same compound?
Its value is 1.63.

What does the source list for Cc1ccc(-c2noc(C)c2COc2ccc(C(=O)N3CC(F)(F)C3)nn2)cn1 [Example 47, (3,3-difluoroazetidin-1-yl)(6-((5-methyl-3-(6-methylpyridin-3-yl)isoxazol-4-yl)methoxy)pyridazin-3-yl)methanone]?
pKi [1]: 7.89; Efficacy (GABA) % [2]: 68%; Fold increase h-GABA-A α5β3γ2 oocyte [2]: 1.68

Cc1ccc(-c2noc(C)c2COc2ccc(C(=O)N3CCC(F)(F)C3)nn2)cn1 [Example 48, (3,3-difluoropyrrolidin-1-yl)(6-((5-methyl-3-(6-methylpyridin-3-yl)isoxazol-4-yl)methoxy)pyridazin-3-yl)methanone] was tested. Which pKi [1] did it give?
The pKi was 7.50.

And the “Efficacy (GABA) %” value [2]?
Its value is 74%.

What about the “Fold increase h-GABA-A α5β3γ2 oocyte” value [2] of the same compound?
The value was 1.74.

With Cc1ccc(-c2noc(C)c2COc2ccc(C(=O)NCC3(C)COC3)nn2)cn1 [Example 49, 6-((5-methyl-3-(6-methylpyridin-3-yl)isoxazol-4-yl)methoxy)-N-((3-methyloxetan-3-yl)methyl)pyridazine-3-carboxamide] as the compound, how does the pKi [1] read?
Its pKi is 7.87.

And the “Efficacy (GABA) %” value [2]?
Its value is 70%.

And the “Fold increase h-GABA-A α5β3γ2 oocyte” value [2]?
Its value is 1.7.

What does the source list for Cc1ccc(-c2noc(C)c2COc2ccc(C(=O)NCC3COC3)nn2)cn1 [Example 50, 6-((5-methyl-3-(6-methyl-3-pyridyl)isoxazol-4-yl)methoxy)-N-(oxetan-3-ylmethyl)pyridazine-3-carboxamide]?
pKi [1]: 8.12; Efficacy (GABA) % [2]: 72%; Fold increase h-GABA-A α5β3γ2 oocyte [2]: 1.72

With Cc1ccc(-c2noc(C)c2COc2ccc(C(=O)NCC3(O)COC3)nn2)cn1 [Example 51, N-((3-hydroxyoxetan-3-yl)methyl)-6-((5-methyl-3-(6-methylpyridin-3-yl)isoxazol-4-yl)methoxy)pyridazine-3-carboxamide] as the compound, how does the pKi [1] read?
Its pKi is 7.97.

And the “Efficacy (GABA) %” value [2]?
Its value is 57%.

And the “Fold increase h-GABA-A α5β3γ2 oocyte” value [2]?
The value was 1.57.

From US20240279218A1 (Hoffmann-La Roche Inc., priority 2016, published 2024)
